# “Also recorded” adds a separate entry of the source.
# How the values were obtained:
# CHIKV = format: cell-based, chikungunya virus
# Vero cells = details: African green monkey
# ZIKV = assay: microbe, parasite or virus in culture; format: cell-based; details: Zika virus, read-out: ZIKV EC50
# [1] = molecular target: recombinant human SAH hydrolase (Homo sapiens, UniProt P23526); format: biochemical
# +RNA viruses = format: cell-based
# AK^+ and AK^– cells = details: cited from earlier work
# recombinant human SAH hydrolase, sequence (P23526 whole entry): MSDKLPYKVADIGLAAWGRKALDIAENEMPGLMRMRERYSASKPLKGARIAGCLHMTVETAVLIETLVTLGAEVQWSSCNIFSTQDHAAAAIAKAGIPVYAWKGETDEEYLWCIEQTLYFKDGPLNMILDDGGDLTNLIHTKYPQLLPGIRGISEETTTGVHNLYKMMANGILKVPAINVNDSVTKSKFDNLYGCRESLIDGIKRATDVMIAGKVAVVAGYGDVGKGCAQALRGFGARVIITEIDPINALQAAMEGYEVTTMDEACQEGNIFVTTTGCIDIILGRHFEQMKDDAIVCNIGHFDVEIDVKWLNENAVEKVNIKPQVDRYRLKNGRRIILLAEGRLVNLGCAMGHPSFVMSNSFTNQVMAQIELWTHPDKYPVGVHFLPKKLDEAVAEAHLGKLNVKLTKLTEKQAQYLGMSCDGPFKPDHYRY
smiles,measurement,setting,value
"Nc1ncnc2c1ncn2[C@H]1[C@H](O)[C@H](O)[C@@H](CO)C1(F)F [Compound 2c, (1R,2S,3S,5R)-3-(6-Amino-9H-purin-9-yl)-4,4-difluoro-5-(hydroxymethyl)cyclopentane-1,2-diol]",reduction of infectious CHIKV titers,CHIKV,more than 2 log
same,reduction in cytotoxicity versus 2a,Vero cells,> 5 fold
"O=c1ccn([C@H]2[C@H](O)[C@H](O)[C@@H](CO)[C@H]2F)c(=O)[nH]1 [Compound 2f, 1-((1S,2R,3R,4R,5S)-2-Fluoro-4,5-dihydroxy-3-(hydroxymethyl)cyclopentyl)pyrimidine-2,4(1H,3H)-dione]",EC50,ZIKV,> 100 µM
"CNc1ncnc2c1ncn2[C@H]1[C@H](O)[C@H](O)[C@@H](CO)[C@H]1F [Compound 2d, (1S,2R,3R,4R,5S)-4-Fluoro-3-(hydroxymethyl)-5-(6-(methylamino)-9H-purin-9-yl)cyclopentane-1,2-diol]","SAH hydrolase inhibitory activity, fold decrease versus 2a",[1],11.9 fold
same,antiviral activity against +RNA viruses (in words),+RNA viruses,did not show significant antiviral activities
"Nc1ncnc2c1ncn2[C@@H]1C[C@H](CO)[C@@H](O)[C@H]1O [Compound 1, (−)-Aristeromycin]",toxicity in AK^+ and AK^– cells,AK^+ and AK^– cells,toxic at low concentrations
"O=c1ccn([C@H]2[C@H](O)[C@H](O)[C@@H](CO)[C@@H]2F)c(=O)[nH]1 [Compound 2g, 1-((1S,2S,3R,4R,5S)-2-Fluoro-4,5-dihydroxy-3-(hydroxymethyl)cyclopentyl)pyrimidine-2,4(1H,3H)-dione]",EC50,ZIKV,> 100 µM
"CC(C)OC(=O)[C@H](C)N[P@](=O)(OC[C@@H]1[C@@H](O)[C@@H](O)[C@H](n2cnc3c(N)ncnc32)C1(F)F)Oc1ccccc1 [Compound 3a, Iso-propyl ((S)-(((1R,3S,4S,5R)-3-(6-Amino-9H-purin-9-yl)-2,2-difluoro-4,5-dihydroxycyclopentyl)methoxy)(phenoxy)phosphoryl)-L-alaninate]",antiviral activity against +RNA viruses (in words),+RNA viruses,potent broad-spectrum antiviral activity; also recorded: exhibited significant broad-spectrum antiviral activities
"CNc1ncnc2c1ncn2[C@H]1[C@H](O)[C@H](O)[C@@H](CO)C1(F)F [Compound 2e, (1S,2R,3R,5S)-4,4-Difluoro-3-(hydroxymethyl)-5-(6-(methylamino)-9H-purin-9-yl)cyclopentane-1,2-diol]",antiviral activity against +RNA viruses (in words),+RNA viruses,did not show significant antiviral activities

# Reference: paper PMC7075649 (Journal of Medicinal Chemistry, 2019)
